By IC50 is commonly meant the midpoint of a concentration-inhibition curve.

Like-named read-outs stand apart in the source and are kept apart here.

In experiment [1] the target is T1, 3-hydroxy-3-methylglutaryl-coenzyme A reductase (Rattus norvegicus, UniProt P51639).
T1 sequence (P51639 1-887): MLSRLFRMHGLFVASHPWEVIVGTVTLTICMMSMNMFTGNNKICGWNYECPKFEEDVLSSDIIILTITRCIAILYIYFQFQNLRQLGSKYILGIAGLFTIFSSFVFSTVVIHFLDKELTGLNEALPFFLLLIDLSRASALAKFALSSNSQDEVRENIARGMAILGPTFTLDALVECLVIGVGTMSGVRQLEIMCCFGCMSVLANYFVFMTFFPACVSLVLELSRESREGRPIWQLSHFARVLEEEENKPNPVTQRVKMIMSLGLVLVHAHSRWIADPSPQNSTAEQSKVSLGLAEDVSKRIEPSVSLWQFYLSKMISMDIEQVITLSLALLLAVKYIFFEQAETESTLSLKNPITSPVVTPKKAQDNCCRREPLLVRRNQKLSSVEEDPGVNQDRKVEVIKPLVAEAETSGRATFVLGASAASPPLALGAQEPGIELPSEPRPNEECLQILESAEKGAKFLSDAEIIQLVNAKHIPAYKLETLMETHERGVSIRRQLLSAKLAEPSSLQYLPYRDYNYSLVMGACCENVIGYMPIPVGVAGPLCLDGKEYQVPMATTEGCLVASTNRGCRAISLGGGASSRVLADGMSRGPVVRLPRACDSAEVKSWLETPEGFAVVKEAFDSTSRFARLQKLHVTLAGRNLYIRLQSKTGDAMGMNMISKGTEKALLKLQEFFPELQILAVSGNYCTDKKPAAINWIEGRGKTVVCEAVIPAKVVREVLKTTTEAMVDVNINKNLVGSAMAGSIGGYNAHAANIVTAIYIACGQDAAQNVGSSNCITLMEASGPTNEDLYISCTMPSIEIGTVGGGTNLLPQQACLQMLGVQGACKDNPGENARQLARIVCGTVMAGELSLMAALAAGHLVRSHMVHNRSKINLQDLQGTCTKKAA
To be noted: from E.P. publication 0 024 348, cited from earlier work.

The target of experiment [2] is T1, 3-hydroxy-3-methylglutaryl-coenzyme A reductase. The experiment is described as follows: Method A: in vitro enzyme inhibition (method of Knauss et al.). It counts as biochemical.

`O=C1C[C@H](O)C[C@@H](/C=C/c2c(Cl)cc(Cl)cc2-c2ccc(F)cc2)O1` [(E)-6-[2-(3,5-dichloro-4'-fluoro[l,l'-biphenyl]-2-yl)ethenyl]-3,4,5,6-tetrahydro-4-hydroxy-2H-pyran-2-one]: the “inhibitory potency (relative, in words)” value in experiment [1] (compared with the (+) trans enantiomer of the 2,4-dichloro-6-(phenylmethoxy)phenyl compound, tested as sodium salt of the dihydroxy acid) is “even more potent”.

On to `O=C1CC(O)CC(CCc2c(Cl)cc(Cl)cc2OCc2ccccc2)O1` (single isomer, unassigned; (+)) [6-[2-(2,4-dichloro-6-(phenylmethoxy)phenyl)ethyl]-3,4,5,6-tetrahydro-4-hydroxy-2H-pyran-2-one], for which, in experiment [1] (method A, tested as the sodium salts of the corresponding dihydroxy acid forms), the IC50 is 68 nM.

As for `Cc1cc(C)c(/C=C/[C@@H]2C[C@@H](O)CC(=O)O2)c(-c2ccc(F)c(C)c2)c1` [III, (+)-(4R, 6S)-(E)-6-[2-(3,3',5-trimethyl-4'-fluoro-[1,1'-biphenyl]-2-yl)ethenyl]-3,4,5,6-tetrahydro-4-hydroxy-2H-pyran-2-one], the “inhibition of cholesterol biosynthesis (in words)” value in experiment [2] (compared with compactin, test not specified) is “surpassing the inhibitory activity of compactin”. Moreover, the “inhibitory potency (relative, in words)” value in experiment [2] (compared with the (+) trans 3,5-dichloro-4'-fluoro-biphenyl compound, tested as sodium salt of the dihydroxy acid) is recorded as “several times more potent”.

(Values after patent EP0068038A1, “(+)-(4R,6S)-(E)-6-(2-(4'-fluoro-3,3',5-trimethyl-(1,1'-biphenyl)-2-yl)ethenyl)-3,4,5,6-tetrahydro-4-hydroxy-2H-pyran-2-one, a process for preparing and a pharmaceutical composition containing the same” (Merck & Co., Inc., priority 1981, dated 1983).)
